Measurements from ChEMBL document CHEMBL1142283, “Thiosulfinates from Allium tuberosum L. induce apoptosis via caspase-dependent and -independent pathways in PC-3 human prostate cancer cells” (Bioorg Med Chem Lett, 2008).
Active and inactive are the calls of the source. No cut-off for these calls is given here.

What was measured:
PC-3 [1] = assay: Induction of apoptosis in human PC3 cells assessed as caspase 3 activity at 5 ug/mL; assay type: functional, cell-based
[2] = Cytotoxicity against human RC58T/h/SA#4 cells after 24 hrs by SRB assay; assay type: functional, cell-based
PC-3 [3] = assay: Growth inhibition of human PC3 cells by SRB assay; assay type: functional, cell-based; conditions: TDE = time-dependent effect
DU-145 = assay: Cytotoxicity against human DU145 cells after 24 hrs by SRB assay; assay type: functional, cell-based; conditions: DU-145, 24 h
PC-3 [4] = assay: Induction of apoptosis in human PC3 cells assessed as caspase 9 activity at 10 ug/mL relative to control; assay type: functional
PC-3 [5] = assay: Increase in AIF protein levels in human PC3 cells after 24 hrs by Western blot; assay type: functional, cell-based
PC-3 [6] = assay: Induction of apoptosis in human PC3 cells assessed as caspase 3 activity at 20 ug/mL; assay type: functional, cell-based
PC-3 [7] = assay: Induction of PARP cleavage in human PC3 cells after 24 hrs by Western blot; assay type: functional, cell-based
PC-3 [8] = assay: Induction of apoptosis in human PC3 cells assessed as caspase 3 activity at 10 ug/mL; assay type: functional, cell-based
PC-3 [9] = assay: Induction of apoptosis in human PC3 cells assessed as caspase 8 activity at 10 ug/mL relative to control; assay type: functional
PC-3 [10] = assay: Induction of apoptosis in human PC3 cells assessed as DNA fragmentation at 20 ug/mL after 24 hrs by ELISA relative to control; assay type: functional
PC-3 [11] = assay: Induction of apoptosis in human PC3 cells assessed as caspase 3 activity at 10 ug/mL relative to control; assay type: functional
PC-3 [12] = assay: Growth inhibition of human PC3 cells assessed as decrease in cell numbers by trypan blue assay; assay type: functional, cell-based
PC-3 [13] = assay: Increase in Bax protein expression in human PC3 cells by Western blot; assay type: functional, cell-based
PC-3 [14] = assay: Induction of apoptosis in human PC3 cells assessed as DNA fragmentation at 10 ug/mL after 24 hrs by ELISA relative to control; assay type: functional
PC-3 [15] = assay: Induction of apoptosis in human PC3 cells assessed as DNA fragmentation at 5 ug/mL after 24 hrs by ELISA relative to control; assay type: functional
PC-3 [16] = assay: Cytotoxicity against human PC3 cells after 24 hrs by SRB assay; assay type: functional, cell-based; conditions: PC-3, 24 h
PC-3 [17] = assay: Induction of AIF protein translocation into nucleus in human PC3 cells after 24 hrs by immunostaining; assay type: functional, cell-based
PC-3 [18] = assay: Induction of apoptosis in human PC3 cells after 24 hrs by Hoechst staining; assay type: functional, cell-based
PC-3 [19] = assay: Reversal of induction of apoptosis in human PC3 cells in presence of caspase inhibitor Z-VAD-fmk; assay type: functional, cell-based
PC-3 [20] = assay: Induction of Bid protein cleavage in human PC3 cells by Western blot; assay type: functional, cell-based
PC-3 [21] = assay: Decrease in Bcl2 protein expression in human PC3 cells by Western blot; assay type: functional, cell-based
PC-3 [22] = assay: Induction of cell death in human PC3 cells by trypan blue assay; assay type: functional, cell-based
LNCaP = assay: Cytotoxicity against human LNCap cells after 24 hrs by SRB assay; assay type: functional, cell-based
PC-3 [23] = assay: Induction of cell death in human PC3 cells in presence of caspase inhibitor Z-VAD-fmk; assay type: functional, cell-based
PC-3 [24] = assay: Cell cycle arrest in human PC3 cells assessed as accumulation at subG1 phase after 24 hrs by flow cytometry; assay type: functional, cell-based

| Structure (SMILES) | Activity (PC-3 [1]) | IC50 [2] | Activity (PC-3 [3]) | IC50 (DU-145) | Fold change (PC-3 [4]) | Activity (PC-3 [5]) | Activity (PC-3 [6]) | Activity (PC-3 [7]) | Activity (PC-3 [8]) | Fold change (PC-3 [9]) | Fold change (PC-3 [10]) | Fold change (PC-3 [11]) | Activity (PC-3 [12]) | Activity (PC-3 [13]) | Fold change (PC-3 [14]) | Fold change (PC-3 [15]) | IC50 (PC-3 [16]) | Activity (PC-3 [17]) | Activity (PC-3 [18]) | Activity (PC-3 [19]) | also measured |
| --- | --- | --- | --- | --- | --- | --- | --- | --- | --- | --- | --- | --- | --- | --- | --- | --- | --- | --- | --- | --- | --- |
| C=CC[S+]([O-])SC (configuration not stated) | Active | 25.3 µM | tde | 85.8 µM | 2.1 | Active | Active | Active | Active | 1.9 | 1.8 | 1.7 | Dose-dependent effect | Dose-dependent effect | 1.7 | 1.3 | 62.9 µM | Active | Active | Active | Activity (PC-3 [20]): Active; Activity (PC-3 [21]): Dose-dependent effect; Activity (PC-3 [22]): Dose-dependent effect; IC50 (LNCaP): 29.7 µM; Activity (PC-3 [23]): Active; Activity (PC-3 [24]): Dose-dependent effect |
| CS[S+](C)[O-] (configuration not stated) | Active | 96.1 µM | tde | 184 µM | 2.1 | Active | Active | Active | Active | 1.9 | 1.8 | 1.7 | Dose-dependent effect | Dose-dependent effect | 1.7 | 1.3 | 166 µM | Active | Active | Active | Activity (PC-3 [20]): Active; Activity (PC-3 [21]): Dose-dependent effect; Activity (PC-3 [22]): Dose-dependent effect; IC50 (LNCaP): 102 µM; Activity (PC-3 [23]): Active; Activity (PC-3 [24]): Dose-dependent effect |
